Experimental data from BindingDB's records for doi:10.1021/jm00087a005 (Nova Pharmaceutical, 1992).

Columns and labels:
Assay in all cases: Potency at the sigma binding site was determined in radioligand
[1] = biological target: sigma receptor, [3H]DTG site (Cavia porcellus)
[2] = biological target: sigma receptor, [3H]-(+)-3-PPP site (Cavia porcellus)
[3] = biological target: sigma receptor, [3H]-(+)-3-PPP site (Cavia porcellus); remark: listed apart in the source

An IC50 [1] of 165 nM and an IC50 [2] of 188 nM were found for CN(C)CCCCCCCOc1ccc2oc(-c3ccccc3)cc(=O)c2c1 in this work.
An IC50 [1] of 95 nM and an IC50 [2] of 132 nM were found for O=c1cc(-c2ccc(F)cc2)oc2ccc(OCCCCCCN3CCC(O)CC3)cc12 in this work.
An IC50 [1] of 52 nM and an IC50 [2] of 75 nM were found for CN(CCCCCCOc1ccc2oc(-c3ccccc3)cc(=O)c2c1)Cc1ccccc1 in this work.
An IC50 [3] of 65 nM and an IC50 [1] of 36 nM were found for O=c1cc(-c2ccccc2)oc2cccc(OCCCCCCCN3CCC(O)CC3)c12 in this work.
An IC50 [1] of 139 nM and an IC50 [2] of 261 nM were found for CC(C)Cc1cc(=O)c2cc(OCCCCCN3CCC(O)CC3)ccc2o1 in this work.
An IC50 [3] of 29 nM and an IC50 [1] of 47 nM were found for O=c1cc(-c2ccccc2Cl)oc2ccc(OCCCCCCN3CCC(O)CC3)cc12 in this work.
An IC50 [1] of 119 nM and an IC50 [2] of 192 nM were found for O=c1cc(-c2cccnc2)oc2ccc(OCCCCCCN3CCCCC3)cc12 in this work.
An IC50 [1] of 45 nM and an IC50 [2] of 70 nM were found for O=c1cc(-c2ccccc2)oc2cc(OCCCCCCN3CCC(O)CC3)ccc12 in this work.
An IC50 [1] of 76 nM and an IC50 [2] of 111 nM were found for COc1cccc(-c2cc(=O)c3cc(OCCCCCCN4CCC(O)CC4)ccc3o2)c1 in this work.
An IC50 [1] of 101 nM and an IC50 [2] of 54 nM were found for O=c1cc(-c2ccccc2)oc2ccc(OCCCCCCN3CCCCC3)cc12 in this work.
An IC50 [1] of 297 nM and an IC50 [2] of 341 nM were found for CN(C)CCCCCCCCCCOc1ccc2oc(-c3ccccc3)cc(=O)c2c1 in this work.
An IC50 [3] of 100 nM and an IC50 [1] of 91 nM were found for CCN(CC)CCCCCCOc1ccc2oc(-c3ccccc3)cc(=O)c2c1 in this work.
An IC50 [3] of 308 nM and an IC50 [1] of 159 nM were found for O=c1cc(-c2ccncc2)oc2ccc(OCCCCCCN3CCC(O)CC3)cc12 in this work.
An IC50 [1] of 164 nM and an IC50 [2] of 102 nM were found for CCOC(=O)C1CCN(CCCCCCOc2ccc3oc(-c4ccccc4)cc(=O)c3c2)CC1 in this work.
An IC50 [1] of 58 nM was found for O=c1cc(-c2ccccc2)oc2cccc(OCCCCN3CCC(O)CC3)c12 in this work.
An IC50 [1] of 86 nM and an IC50 [2] of 77 nM were found for O=c1cc(-c2ccccc2)oc2ccc(OCCCCCCN3CCCC(O)C3)cc12 (stereo not given) in this work.
An IC50 [1] of 720 nM and an IC50 [2] of 400 nM were found for CN(C)CCCCOc1ccc2oc(-c3ccccc3)cc(=O)c2c1 in this work.
An IC50 [3] of 232 nM and an IC50 [1] of 119 nM were found for O=c1cc(-c2cccs2)oc2ccc(OCCCCCCN3CCC(O)CC3)cc12 in this work.
An IC50 [3] of 335 nM and an IC50 [1] of 432 nM were found for CN(C)CCCCCCOc1ccc2oc(-c3ccccc3)cc(=O)c2c1 in this work.
An IC50 [2] of 14200 nM was found for O=c1cc(-c2ccccc2)oc2ccc(OCCCCCCN3CCNCC3c3ncccn3)cc12 (stereo not given) in this work.
An IC50 [1] of 195 nM and an IC50 [2] of 164 nM were found for O=c1cc(-c2ccc(Cl)cc2)oc2ccc(OCCCCCCN3CCC(O)CC3)cc12 in this work.
An IC50 [3] of 19 nM and an IC50 [1] of 16 nM were found for O=c1cc(-c2ccccc2)oc2cc(OCCCCCCCN3CCC(O)CC3)ccc12 in this work.
An IC50 [1] of 334 nM and an IC50 [2] of 202 nM were found for CN(C)CCCCCCCCCOc1ccc2oc(-c3ccccc3)cc(=O)c2c1 in this work.
An IC50 [1] of 493 nM and an IC50 [2] of 600 nM were found for COc1ccc(-c2cc(=O)c3cc(OCCCCCN4CCC(O)CC4)ccc3o2)cc1 in this work.
An IC50 [1] of 590 nM and an IC50 [2] of 40 nM were found for CN(C)CCOc1ccc2oc(-c3ccccc3)cc(=O)c2c1 in this work.
An IC50 [1] of 88 nM and an IC50 [2] of 46 nM were found for O=c1cc(C2CCCCC2)oc2ccc(OCCCCCCN3CCC(O)CC3)cc12 in this work.
An IC50 [1] of 26 nM and an IC50 [2] of 38 nM were found for O=c1cc(C2CCCC2)oc2ccc(OCCCCCCN3CCCCC3)cc12 in this work.
An IC50 [1] of 130 nM and an IC50 [2] of 123 nM were found for O=c1cc(-c2ccccc2)oc2ccc(OCCCN3CCC(O)CC3)cc12 in this work.
An IC50 [1] of 227 nM and an IC50 [2] of 143 nM were found for CN(C)CCCCCCCCOc1ccc2oc(-c3ccccc3)cc(=O)c2c1 in this work.
An IC50 [3] of 91 nM and an IC50 [1] of 125 nM were found for O=c1cc(-c2ccccc2)oc2cccc(OCCCN3CCC(O)CC3)c12 in this work.
An IC50 [1] of 51 nM and an IC50 [2] of 55 nM were found for O=c1cc(C2CCCC2)oc2ccc(OCCCCCCN3CCC(O)CC3)cc12 in this work.
An IC50 [1] of 194 nM and an IC50 [2] of 210 nM were found for O=c1cc(-c2cccnc2)oc2ccc(OCCCCCCN3CCC(O)CC3)cc12 in this work.
An IC50 [1] of 254 nM and an IC50 [2] of 332 nM were found for COc1ccc(-c2cc(=O)c3cc(OCCCCCCN4CCC(O)CC4)ccc3o2)cc1 in this work.
An IC50 [1] of 55 nM and an IC50 [2] of 32 nM were found for O=c1cc(C2CCCCC2)oc2ccc(OCCCCCCN3CCCCC3)cc12 in this work.
An IC50 [3] of 121 nM and an IC50 [1] of 100 nM were found for O=c1cc(-c2ccccc2)oc2ccc(OCCCCCCN3CCC(O)CC3)cc12 in this work.
An IC50 [1] of 239 nM and an IC50 [2] of 95 nM were found for O=c1cc(C2CCCCC2)oc2ccc(OCCCCCCN3CCOCC3)cc12 in this work.
